A short description of series [1]: Cytotoxicity test, liver cell. The conditions noted are these: hepatocytes.
Experimental: (§6) Cytotoxicity tests were performed against vascular endothelial cells, vascular smooth muscle cells and hepatocytes. After treatment with ascending concentrations of each compound, the concentration of test compound corresponding to 50% cell viability (CC50) was measured.
The nature of series [2]: Cytotoxicity assay (WST-1), endothelial cell. The conditions noted are these: human, human aortic endothelial cells (HAEC). For orientation: Tetrazolium dyes change colour on reduction, which living cells bring about.
Experimental: (§7) For cytotoxicity analysis, human aortic endothelial cells (HAEC) and smooth muscle cells (HASMC) were seeded in a 96-well culture plate at density of 4000 cells/well in a final volume of 100 μL. Cells were cultured for 24 h and serum-starved for an additional 18 h. Test compounds were serially diluted with EBM-2 culture medium, added to the plate at 100 μL/well, and further incubated for 24 h. The number of viable cells was measured using the WST-1 cell viability assay kit (Roche Diagnostics, USA). Cell number was expressed as absorbance values at 450 nm after subtracting the turbidity value at 600 nm. The absorbance values from three replicate wells were averaged.
(§8) After treatment with ascending concentrations of each compound, the concentration of test compound corresponding to 50% cell viability (CC50) was measured.
Series [3] is described as follows: Cytotoxicity assay (WST-1), smooth muscle cell. Conditions: human, human aortic smooth muscle cells (HASMC).
Experimental: as §7, §8
The test system of series [4] is yeast thioredoxin (Trx)/yeast Trx reductase (TR). Nature of the series: Peroxidase activity assay (H2O2 reduction, NADPH oxidation). The series is classed as biochemical. Conditions: 50 μM test compound, 3 μM yeast Trx, 1.5 μM yeast TR, 250 μM NADPH, 1.2 mM H2O2, 30° C.; NADPH oxidized per minute. On the procedure:
Hydrogen peroxide (H2O2)-reducing peroxidase activity of compounds in present invention was performed as follows. Peroxyredoxin activity was measured in reaction mixture (200 μL volume) containing 50 mM HEPES buffer (pH 7.0), 1 mM EDTA, 250 μM NADPH, 3 μM yeast thioredoxin (Trx), 1.5 μM yeast Trx reductase (TR), 50 μM test compound, and 1.2 mM H2O2.
Reaction was initiated by adding H2O2 and the decrease in absorbance at 340 nm was measured using Agilent UV8453 spectrophotometry (Hewlett Packard, USA) at 30° C. for 12 min. Initial reaction rate is the amount of NADPH oxidized per minute calculated from slope of the linear part of curve.
The H2O2-reducing peroxidase activity of the test compounds in present invention was measured in a reaction mixture containing thioredoxin (Trx)/thioredoxin reductase (TR), respectively.

The subject of series [5] is Tyr 857 phosphorylation of PDGF receptor-β (PDGFRβ) in HASMC. Description: Immunoblot of PDGF-mediated signaling in PrxII knock-down HASMC. The series is classed as cell-based, human. Conditions: HASMC depleted of PrxII expression, FIG. 2. On the procedure: (§1) Cells were quickly washed in ice-cold phosphate-buffered saline (PBS) and lysed in extraction buffer containing 20 mM Hepes (pH 7.0), 1% Triton X-100, 150 mM NaCl, 10% glycerol, 1 mM EDTA, 2 mM EGTA, and 1 mM DTT, 5 mM Na3VO4, 5 mM NaF, 1 mM AEBSF, aprotinin (5 μg/mL), and leupeptin (5 μg/mL). After cen-trifugation at 12,000×g, the clarified cell extracts were used for immunoblotting. For re-blotting, the immunoblots were retrieved in a solution of 67 mM Tris (pH 6.7), 2% SDS, and 100 mM 2-mercaptoethanol at 60° C. for 30 min to remove antibodies and rinsed three times with a Tris-buffered saline (TBS) solution containing 1% Triton X-100. The retrieved membranes were subjected to new immunoblotting.
In human aortic smooth muscle cell (HASMC) and human pulmonary artery smooth muscle cell (PASMC) in which PrxII was knocked out by transfecting the PrxII siRNA, the ability of test compounds to replace the cellular function of PrxII was evaluated. That is, the efficacy of the new compounds was verified in terms of signaling pathways induced by PDGF that regulates the growth and migration of vascular smooth muscle cells in the aorta and pulmonary artery. Activation of PDGF-induced signaling pathway was analyzed by an immunoblot method using an antibody that specifically recognizes phosphorylation of Tyr 857, which is a major phosphorylation site on PDGF receptor (PDGFRβ).
(In general: Immunoblotting shows a protein as a band on a membrane.)

For series [6], the system named is Tyr 1175 phosphorylation of VEGF receptor-2 (VEGFR2) in HAEC. Description: Immunoblot of VEGF-mediated signaling in PrxII knock-down HAEC. Conditions: HAECs depleted of PrxII expression, FIG. 5. The series is classed as cell-based, human. On the procedure:
as §1
In human aortic endothelial cell (HAEC) and human pulmonary artery endothelial cell (PAEC) in which PrxII was knocked out by transfecting the PrxII siRNA, the ability of test compounds to replace the cellular function of PrxII was evaluated. That is, the efficacy of the new compounds was verified in terms of signaling pathways induced by VEGF that regulates the growth and migration of vascular endothelial cells in the aorta and pulmonary artery. Activation of VEGF-induced signaling pathway was analyzed by an immunoblot method using an antibody that specifically recognizes phosphorylation of Tyr 1175, which is a major phosphorylation site on VEGF receptor-2 (VEGFR2).

In series [7] the test system is human aortic smooth muscle cell (HASMC). Nature of the series: PDGF-induced proliferation assay, HASMC (PrxII siRNA). The series is classed as cell-based. The conditions noted are these: for Degree of HASMC proliferation: PDGF-BB 25 ng/mL, percent of untreated control. On the procedure: (§2) HASMCs and PASMCs were transfected with a PrxII-specific siRNA using RNAi MAX transfection reagent according to manufacturer's protocol. After 24 hours, transfected cells (3,000 cells/well) were seeded in a 96-well culture plate. At 12 h after seeding, cells were serum-starved for additional 18 h in SmBM basal medium containing 0.5% FBS. Test compounds were serially diluted with the same basal medium containing 0.5% FBS, added to the cells ([…]), and incubated for 2 h. After treatment, cells were placed in fresh SmBM medium containing 0.5% FBS and PDGF-BB (25 ng/mL) for growth factor stimulation and further cultured for 24 h.
(§3) The degree of cell proliferation was measured using the Cell Titer-GLO kit ([…]). Data are the percent of luminescence intensity averaged from three replicate wells versus that of untreated control group.
(§4) In human aortic smooth muscle cell (HASMC) and human pulmonary artery smooth muscle cell (PASMC) in which PrxII was knocked out by transfecting the PrxII siRNA, the ability of test compounds to inhibit the PDGF-induced proliferation of vascular smooth muscle cells was evaluated. In Table 6, the degree of proliferation in the compound-treated groups is expressed as percent of the degree of proliferation in untreated control group. The concentrations of test compounds corresponding to 50% growth inhibition (IC50) is also listed.

Series [8] deals with human pulmonary artery smooth muscle cell (PASMC). Description: PDGF-induced proliferation assay, PASMC (PrxII siRNA). The format is cell-based. The conditions noted are these: for Degree of PASMC proliferation: PDGF-BB 25 ng/mL, percent of untreated control. On the procedure: as §2, §3, §4
In series [9] the test system is human aortic endothelial cell (HAEC). Nature of the series: VEGF-induced proliferation assay, HAEC (PrxII siRNA). The series is classed as cell-based. Conditions: for Degree of HAEC proliferation: VEGF-A 25 ng/mL, percent of untreated control. As for the experimental part:
as §2, with “HAECs” for “HASMCs”, “PAECs” for “PASMCs”, “EBM” for “SmBM”, “VEGF-A” for “PDGF-BB”
as §3
(§5) In human aortic endothelial cell (HAEC) and human pulmonary artery endothelial cell (PAEC) in which PrxII was knocked out by transfecting the PrxII siRNA, the ability of test compounds to augment the VEGF-induced proliferation of vascular endothelial cells was evaluated. In Table 7, the degree of proliferation in the compound-treated groups is expressed as percent of the degree of proliferation in untreated control group. The effective concentrations of test compounds increasing cell proliferation by 50% (EC50) is also listed.

Series [10] concerns human pulmonary artery endothelial cell (PAEC). Nature of the series: VEGF-induced proliferation assay, PAEC (PrxII siRNA). The format is cell-based. The conditions noted are these: for Degree of PAEC proliferation: VEGF-A 25 ng/mL, percent of untreated control. As for the experimental part:
as §2, with “HAECs” for “HASMCs”, “PAECs” for “PASMCs”, “EBM” for “SmBM”, “VEGF-A” for “PDGF-BB”
as §3, §5

Series [11] can be described thus: in vitro. The conditions noted are these: human.
Experimental: as §7, §8
Series [12] can be described thus: in vitro.
Experimental: as §6
Series [13] is described as follows: in vitro. The conditions noted are these: human. This is another data set of the same source.
Experimental: as §7, §8
For series [14] the following is noted: reference potential values of Trx and GSH for comparison; cited from earlier work.
Series [15] in a line: Measurement of redox potential (DTT redox buffers, HPLC). The series is classed as physicochemical. Conditions: DTT(Red)/DTT(Ox) redox buffers, 3 h, 30° C., 50% reduction of test compound. On the procedure: A test compound (10 mM) was diluted 20-fold with each redox buffer solution and incubated for 3 h in a 30° C. water bath. Then, compounds were analyzed by HPLC. The area of peaks corresponding to the oxidized and reduced forms of test compound based on specific retention time was calculated and plotted as percent of total peak area against the Nernst equation value (mV) at x-axis. The Nernst equation value corresponding to 50% reduction of test compound was set as the midpoint redox potential value for test compound.
The redox potential values of the test compounds were analyzed based on the potential values established in redox buffer solutions where reduced and oxidized DTT are mixed at various ratios.

The next series relates to hepatocytes. Description: Cytotoxicity test, liver cell. Conditions: read-out: Cell cytotoxicity (CC50) Liver cell; concentration corresponding to 50% cell viability.
In series [16] the test system is human aortic endothelial cells (HAEC). Description: Cytotoxicity assay (WST-1), endothelial cell. Conditions: read-out: Cell cytotoxicity (CC50) Endothelial cell; 24 h, concentration corresponding to 50% cell viability.
Experimental: as §7, §8
Series [17] concerns human aortic smooth muscle cells (HASMC). Nature of the series: Cytotoxicity assay (WST-1), smooth muscle cell. Conditions: read-out: Cell cytotoxicity (CC50) Smooth muscle cell; 24 h, concentration corresponding to 50% cell viability.
Experimental: as §7, §8
Setting [18] is: Homo sapiens, Endothelial cell, effective concentration increasing cell proliferation by 50%, VEGF-stimulated.

Read-outs that look alike come from different tables or passages of the source.

Experimental for hepatocytes: as §6

Consider `CN1C(=O)C2CSSC1(C)C(=O)N2Cc1nc2ccccc2s1` (stereo not drawn) [Compound 15, 6-(benzo[d]thiazol-2-ylmethyl)-1,8-dimethyl-2,3-dithia-6,8-diazabicyclo[3.2.2]nonane-7,9-dione], for which the CC50 in series [1] was 157 µM. The results for the CC50 at 24 h in series [2] and in series [3] were 114 µM and 98.5 µM, respectively.
The IC50 is the concentration needed to halve the response being measured. Lower therefore signals inhibition by little substance. For orientation: EC50 means the concentration that produces a half-maximal response. As for `CN1CCN2C(=O)C3CSSC2(C1)C(=O)N3C` (stereo not drawn) [Compound 23], the “Peroxidase activity for H2O2 reduction” value in series [4] came out at 8.81 nmol/min. In addition, the “Effect on phosphorylation of Tyr 857 on PDGFR” value in series [5] is given as “strongly abolish the phosphorylation”. Moreover, in [6], the “Effect on phosphorylation of Tyr 1175 on VEGFR2” value is reported as “strongly abolish the phosphorylation”. Moreover, the “Degree of HASMC proliferation” value in series [7] (2.5 nM) came to 89.8%; in series [7] (5 nM) it was 54.3%; in series [7] (10 nM), 34.4%; in series [7] (25 nM), 20.4%. Besides, the 50% inhibitory concentration (IC50) in series [7] (Homo sapiens, HASMC, 50% growth inhibition, PDGF-stimulated) is 0.00685 µM; in series [8] (Homo sapiens, PASMC, 50% growth inhibition, PDGF-stimulated) it was 0.00476 µM. The “Degree of PASMC proliferation” value was determined as 70.8% in series [8] (2.5 nM); 43.3% in series [8] (5 nM); 32.9% in series [8] (10 nM); 14.6% in series [8] (25 nM); 3.2% in series [8] (50 nM); 0.0% in [8] (100 nM). Moreover, the “Degree of HAEC proliferation” value in [9] (2.5 nM) came to 109.4%; in series [9] (5 nM), 122.6%; in [9] (10 nM) it was 161.3%; in series [9] (25 nM) it was 187.6%; in series [9] (50 nM), 177.1%; in series [9] (100 nM) it was 133.0%. The EC50 turned out to be 0.00972 µM in series [9] (setting [18]) and 0.0052 µM in series [10] (setting [18]). In addition, the “Degree of PAEC proliferation” value was 109.2% in [10] (2.5 nM); 122.9% in series [10] (5 nM); 148.3% in series [10] (10 nM); 173.3% in [10] (25 nM); 155.3% in series [10] (50 nM); 133.9% in series [10] (100 nM). Also, the CC50 in “in vitro [11]” is > 500 µM; in “in vitro [12]”, 123 µM.
`CN1C(=O)C2(Cc3ccccc3)SSCC1C(=O)N2C` (stereo not drawn) [Compound 19, 1-benzyl-6,8-dimethyl-2,3-dithia-6,8-diazabicyclo[3.2.2]nonane-7,9-dione]: in series [4], the “Peroxidase activity for H2O2 reduction” value was found to be 5.69 nmol/min. Also, the “Effect on phosphorylation of Tyr 857 on PDGFR” value in [5] is “strongly abolish the phosphorylation”. Further, the CC50 in “in vitro [11]”, in the series “in vitro [13]” and in the series “in vitro [12]” was > 500 µM in each case.
As to thioredoxin [Trx], the “Midpoint redox potential (E m)” value in series [14] was −270 mV.
For the molecule `N[C@@H](CCC(=O)N[C@@H](CS)C(=O)NCC(=O)O)C(=O)O` [GSH], the “Midpoint redox potential (E m)” value in series [14] is on record as −240 mV.
As for `O=C1C2CSSC3(CCCN13)C(=O)N2Cc1ccccc1` (stereo not drawn) [Compound 7, 11-benzyltetrahydro-5H,7H-4,9a-(epiminomethano)pyrrolo[2,1-c][1,2,4]dithiazepine-5,10-dione], the “Peroxidase activity for H2O2 reduction” value in series [4] came to 3.83 nmol/min. The “Midpoint redox potential (E m)” value in series [15] is recorded as −300.98 mV. For the same molecule, the CC50 (with hepatocytes; in series [16]; in series [17]) was > 500 µM throughout.
For the molecule `CN1C(=O)C2CSSC1(C)C(=O)N2Cc1cccs1` (stereo not drawn) [Compound 14, 1,8-dimethyl-6-(thiophen-2-ylmethyl)-2,3-dithia-6,8-diazabicyclo[3.2.2]nonane-7,9-dione], in series [4], the “Peroxidase activity for H2O2 reduction” value turned out to be 4.78 nmol/min. In addition, the CC50 at 24 h in series [3] is > 500 µM.

The values are drawn from patent publication US20260008784A1 (VASTHERA CO., LTD., priority 2022, published 2026).
